Experimental data reported in patent publication US9730940B2, “Purine inhibitors of human phosphatidylinositol 3-kinase delta” (priority 2012, dated 2017).

The molecules below were run against PI3K-alpha (Homo sapiens (Human), UniProt P42336) (assay: HTRF PI3K biochemical assay, alpha isoform). Conditions: ratio PI3K-alpha IC50 value/PI3K-delta IC50 value.
Excerpt: HTRF PI3K Biochemical Assay to Measure Intrinsic Potency of Compound Inhibitors
The PI3-Kinase biochemical assays were developed to measure the intrinsic potency and compound dependent inhibition of the alpha, beta, delta, and gamma PI3K isoform enzymes. This assay was developed and further optimized from a kit produced by Upstate (Millipore catalog #33-047) and has been configured for HTS and SAR screening. Briefly, this procedure exploits the exquisite specificity and high affinity binding of enzyme reaction substrate phosphatidyl(3,4,5)triphosphate (PIP3) to the GRP1 pleckstrin homology (PH) domain to generate the signal. In the absence of PIP3, an HTRF (Homogeneous Time-Resolved Fluorescence energy transfer) complex is formed consisting of europium (Eu)-labeled anti-GST, GST tagged GRP1-PH domain, biotin-PIP3 and streptavidin conjugated APC. The native PIP3 produced by PI3-Kinase activity disrupts in a competitive manner the biotin-PIP3 from the PH domain, resulting in the loss of energy transfer (HTRF complex) and a decrease in the signal. The format of this assay is the same for all 4 isoforms of PI3K; the differences lie in the concentration of enzyme used to achieve robust assay window. The alpha, beta, and delta assays are run at 0.5, 1, and 0.3 nM enzymes and the gamma assay is run at 5 nM enzyme. The ATP concentration is 100 uM in the alpha, beta, and delta assays and 50 uM ATP in the gamma assay. All reactions are run at 5 uM PIP2.
Compounds are serially diluted (3-fold in 100% DMSO) across a 384-well polypropylene source plated from column 3 to column 12 and column 13 to column 22, to yield 10 concentration dose response for each test compound. Columns 1, 2, 23 and 24 contain either only DMSO or pharmacological known control inhibitor.
The PI3-Kinase biochemical assay was optimized using the HTRF kit provided by Upstate (Millipore). The assay kit contains six reagents: 1) 4× Reaction Buffer; 2) native PIP2 (substrate); 3) Stop (EDTA); 4) Detection Mix A (Streptavidin-APC); 5) Detection Mix B (Eu-labeled Anti-GST plus GST-tagged PH-domain); 6) Detection Mix C.
PI3Kinase Reaction Buffer is prepared by dilution the stock 1:4 with de-ionized water. […] Enzyme addition and compound pre-incubation are initiated by the addition of 1.25 ul of PI3K (at twice its final concentration) in the 1× reaction buffer to all wells using a BioRaptor. Plates are incubated at room temperature for 15 minutes. Reactions are initiated by addition of 1.25 ul of 2× substrate solution (PIP2 and ATP in 1× reaction buffer) using BioRaptor. Plates are incubated in humidified chamber at room temperature for one hour. Reactions are quenched by addition of 0.625 uL of stop solution to all wells using the BioRaptor. The quenched reactions are then processed to detect product formation by adding 0.625 uL of Detection Solution to all wells using the BioRaptor (Detection mix C, Detection Mix A, and Detection Mix B combined together in an 18:1:1 ratio prepared 2 hours prior to use).
The loss of the HTRF signal is due to the displacement of biotinylated-PIP3 from the PH domain by the PI3K-dependent conversion of PIP2 to PIP3. This loss of signal is nonlinear with respect to both increasing product and time. This non-linear detection will impact accuracy of IC50 calculations; therefore, there is a need for a correction factor to obtain more accurate IC50 values. This correction is derived from a PIP3 standard curve run in a separate assay plate. All data were calculated using the ratio of acceptor (APC) to donor (Europium) fluorescence in each well of the assay plate. […] An IC50 was then calculated fitting the % inhibition data to the equation: % inhibition=min+(Max−min)/1+([inhibitor]/IC50)^n) where min is the % inhibition […], max is the signal in DMSO control, and n is the Hill slope.

PI3K-alpha, sequence (P42336 whole entry, looked up, canonical isoform): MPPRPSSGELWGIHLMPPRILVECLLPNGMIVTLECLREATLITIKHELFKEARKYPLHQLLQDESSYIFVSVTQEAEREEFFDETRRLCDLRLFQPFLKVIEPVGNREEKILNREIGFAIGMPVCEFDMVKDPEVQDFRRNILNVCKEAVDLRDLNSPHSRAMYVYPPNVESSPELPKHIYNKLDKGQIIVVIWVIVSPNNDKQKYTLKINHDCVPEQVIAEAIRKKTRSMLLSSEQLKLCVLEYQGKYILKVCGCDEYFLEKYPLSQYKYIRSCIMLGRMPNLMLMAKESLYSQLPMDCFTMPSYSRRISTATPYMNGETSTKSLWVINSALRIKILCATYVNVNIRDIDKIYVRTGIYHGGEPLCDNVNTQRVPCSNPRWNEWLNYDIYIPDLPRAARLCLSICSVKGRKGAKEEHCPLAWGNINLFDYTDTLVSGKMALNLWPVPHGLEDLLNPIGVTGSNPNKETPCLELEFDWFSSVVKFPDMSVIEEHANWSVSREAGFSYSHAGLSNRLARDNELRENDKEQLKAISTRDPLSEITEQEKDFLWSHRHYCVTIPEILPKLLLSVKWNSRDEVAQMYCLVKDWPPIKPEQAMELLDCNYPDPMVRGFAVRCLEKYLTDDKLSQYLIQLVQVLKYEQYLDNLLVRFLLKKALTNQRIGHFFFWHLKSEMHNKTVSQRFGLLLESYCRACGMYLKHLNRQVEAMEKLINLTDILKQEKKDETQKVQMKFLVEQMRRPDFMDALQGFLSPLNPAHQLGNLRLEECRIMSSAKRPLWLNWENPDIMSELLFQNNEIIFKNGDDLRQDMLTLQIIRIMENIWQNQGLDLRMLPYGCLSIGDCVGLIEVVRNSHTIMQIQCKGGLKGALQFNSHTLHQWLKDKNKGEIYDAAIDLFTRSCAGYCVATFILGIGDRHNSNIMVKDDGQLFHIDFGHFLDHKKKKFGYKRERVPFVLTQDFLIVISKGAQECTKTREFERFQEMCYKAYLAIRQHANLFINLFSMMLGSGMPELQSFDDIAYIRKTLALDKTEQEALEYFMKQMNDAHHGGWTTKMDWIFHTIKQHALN
PI3K-alpha, sequence (P27986 whole entry partner, looked up, canonical isoform): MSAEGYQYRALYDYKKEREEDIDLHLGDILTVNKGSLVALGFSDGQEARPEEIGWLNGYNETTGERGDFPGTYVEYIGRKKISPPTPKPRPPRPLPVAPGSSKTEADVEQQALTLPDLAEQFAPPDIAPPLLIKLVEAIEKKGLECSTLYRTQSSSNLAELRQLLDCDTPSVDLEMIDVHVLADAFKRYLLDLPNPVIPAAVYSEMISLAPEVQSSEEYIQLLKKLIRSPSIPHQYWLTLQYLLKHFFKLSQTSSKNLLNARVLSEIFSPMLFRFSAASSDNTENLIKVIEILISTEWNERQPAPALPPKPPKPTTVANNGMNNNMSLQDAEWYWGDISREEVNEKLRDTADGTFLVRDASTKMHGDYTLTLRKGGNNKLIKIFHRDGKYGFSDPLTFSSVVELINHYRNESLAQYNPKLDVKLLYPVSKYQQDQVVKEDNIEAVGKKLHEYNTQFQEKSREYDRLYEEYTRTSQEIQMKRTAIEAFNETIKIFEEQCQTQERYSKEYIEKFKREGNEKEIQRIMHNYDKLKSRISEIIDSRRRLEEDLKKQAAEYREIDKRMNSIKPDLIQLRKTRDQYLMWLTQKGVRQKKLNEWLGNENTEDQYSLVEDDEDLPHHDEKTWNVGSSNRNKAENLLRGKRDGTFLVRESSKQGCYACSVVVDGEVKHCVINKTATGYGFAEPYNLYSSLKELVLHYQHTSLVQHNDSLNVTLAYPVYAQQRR

Row | SMILES | Relative Selectivity versus PI3Kalpha
1 | CCn1ncc(-c2nc3c(O[C@H]4CCN(C(=O)C5CCOCC5)C4)ncnc3n2C)c1C [Compound 2-8, (S)-(3-((8-(1-ethyl-5-methyl-1H-pyrazol-4-yl)-9-methyl-9H-purin-6-yl)oxy)pyrrolidin-1-yl)(tetrahydro-2H-pyran-4-yl)methanone] | >10
2 | CCC(=O)N1CC[C@H](Oc2ncnc3c2nc(CC(C)C)n3CC)C1 [Compound 14-3, 9-ethyl-8-(2-methylpropyl)-6-{[(3S)-1-propanoylpyrrolidin-3-yl]oxy}-9H-purine] | >10
3 | CCn1c(-c2cnc(C)nc2)nc2c(O[C@H]3CCN(C(=O)[C@@H](N)C(C)C)C3)ncnc21 [Compound 2-111, (2S)-1-[(3S)-3-{[9-ethyl-8-(2-methylpyrimidin-5-yl)-9H-purin-6-yl]oxy}pyrrolidin-1-yl]-3-methyl-1-oxobutan-2-amine] | >10
4 | CCC(=O)N1CC[C@H](Sc2ncnc3c2nc(-c2cnn(CC)c2C)n3C)C1 [Compound 10-4, (S)-1-(3-((8-(1-ethyl-5-methyl-1H-pyrazol-4-yl)-9-methyl-9H-purin-6-yl)thio)pyrrolidin-1-yl)propan-1-one] | >10
5 | CCn1c(-c2ccc(OC)c(F)c2)nc2c(O[C@H]3CCN(C(=O)C4CC4)C3)ncnc21 [Compound 3-24, 6-{[(3S)-1-(cyclopropylcarbonyl)pyrrolidin-3-yl]oxy}-9-ethyl-8-(3-fluoro-4-methoxyphenyl)-9H-purine] | >10
6 | CCn1c(-c2cnn3c2CCCC3)nc2c(O[C@H]3CCN(C(=O)C(C)C)C3)ncnc21 [Compound 3-60, 9-ethyl-6-{[(3S)-1-(2-methylpropanoyl)pyrrolidin-3-yl]oxy}-8-(4,5,6,7-tetrahydropyrazolo[1,5-a]pyridin-3-yl)-9H-purine] | >10
7 | CCn1ncc(-c2nc3c(O[C@H]4CCN(C(=O)NC(C)C)C4)ncnc3n2C)c1C [Compound 5-3, (3S)-3-{[8-(1-ethyl-5-methyl-1H-pyrazol-4-yl)-9-methyl-9H-purin-6-yl]oxy}-N-(1-methylethyl)pyrrolidine-1-carboxamide] | >10
8 | CCOC(=O)[C@H](C)NC(=O)N1CC[C@H](Oc2ncnc3c2nc(-c2cnn(CC)c2C)n3C)C1 [Compound 5-6, ethyl N-{[(3S)-3-{[8-(1-ethyl-5-methyl-1H-pyrazol-4-yl)-9-methyl-9H-purin-6-yl]oxy}pyrrolidin-1-yl]carbonyl}alaninate] | 5
9 | CCn1c(-c2cnc(C)nc2)nc2c(O[C@H]3CCN(C(=O)C4[C@@H](C)[C@@H]4C)C3)ncnc21 (stereo partly drawn) [Compound 2-121, 6-({(3S)-1-[(2S,3S)-(2,3-dimethylcyclopropyl)carbonyl]pyrrolidin-3-yl}oxy)-9-ethyl-8-(2-methylpyrimidin-5-yl)-9H-purine] | >10
10 | CCn1c(-c2ccc(OC(F)F)nc2)nc2c(O[C@H]3CCN(C(=O)C4CC4)C3)ncnc21 [Compound 2-147, 6-{[(3S)-1-(cyclopropylcarbonyl)pyrrolidin-3-yl]oxy}-8-[6-(difluoromethoxy)pyridin-3-yl]-9-ethyl-9H-purine] | >10
11 | CCn1c(C(=O)NCC2CC2)nc2c(O[C@H]3CCN(C(=O)OC(C)(C)C)C3)ncnc21 [Compound 15-3, tert-butyl (3S)-3-({8-[(cyclopropylmethyl)carbamoyl]-9-ethyl-9H-purin-6-yl}oxy)pyrrolidine-1-carboxylate] | >10
12 | CCn1c(-c2cnc(C)nc2)nc2c(O[C@H]3CCN(C(=O)C4(N)CCC4)C3)ncnc21 [Compound 2-112, 1-{[(3S)-3-{[9-ethyl-8-(2-methylpyrimidin-5-yl)-9H-purin-6-yl]oxy}pyrrolidin-1-yl]carbonyl}cyclobutanamine] | >10
13 | CCn1ncc(-c2nc3c(O[C@H]4CCN(c5ncnc6sc(C)cc56)C4)ncnc3n2C)c1C [Compound 7-2, 8-(1-ethyl-5-methyl-1H-pyrazol-4-yl)-9-methyl-6-{[(3S)-1-(6-methylthieno[2,3-d]pyrimidin-4-yl)pyrrolidin-3-yl]oxy}-9H-purine] | >10
14 | CCn1ncc(-c2nc3c(S[C@H]4CCN(c5ncnc6sccc56)C4)ncnc3n2C)c1C [Compound 10-13, (S)-4-(3-((8-(1-ethyl-5-methyl-1H-pyrazol-4-yl)-9-methyl-9H-purin-6-yl)thio)pyrrolidin-1-yl)thieno[2,3-d]pyrimidine] | >10
15 | CCn1c(-c2ccc(OC(F)F)nc2)nc2c(O[C@H]3CCN(C(=O)OC(C)(C)C)C3)ncnc21 [Compound 1-51, tert-butyl (3S)-3-({8-[6-(difluoromethoxy)pyridin-3-yl]-9-ethyl-9H-purin-6-yl}oxy)pyrrolidine-1-carboxylate] | >10
16 | CCn1c(-c2cnc(C)nc2)nc2c(O[C@H]3CCN(C(=O)C=C(C)C)C3)ncnc21 [Compound 2-116, 9-ethyl-6-{[(3S)-1-(3-methylbut-2-enoyl)pyrrolidin-3-yl]oxy}-8-(2-methylpyrimidin-5-yl)-9H-purine] | >10
17 | CCNC(=O)c1nc2c(O[C@H]3CCN(C(=O)OC(C)(C)C)C3)ncnc2n1CC [Compound 15-5, tert-butyl (3S)-3-{[9-ethyl-8-(ethylcarbamoyl)-9H-purin-6-yl]oxy}pyrrolidine-1-carboxylate] | >10
18 | CCC(=O)N1CC[C@H](Oc2ncnc3c2nc(-c2cnc(OC)c(C)c2)n3C)C1 [Compound 2-94, (S)-1-(3-((8-(6-methoxy-5-methylpyridin-3-yl)-9-methyl-9H-purin-6-yl)oxy)pyrrolidin-1-yl)propan-1-one] | >10
19 | CCn1c(-c2ccc(C(F)(F)F)nc2)nc2c(O[C@H]3CCN(C(=O)C4CC4)C3)ncnc21 [Compound 2-145, 6-{[(3S)-1-(cyclopropylcarbonyl)pyrrolidin-3-yl]oxy}-9-ethyl-8-[6-(trifluoromethyl)pyridin-3-yl]-9H-purine] | >10
20 | CCn1c(-c2cnc(C)nc2)nc2c(OC3CN(C(=O)C4CC4)CC3C(F)F)ncnc21 (single isomer, unassigned) [Compound 3-67, cyclopropyl([(3R,4S) or (3S,4R)]-3-(difluoromethyl)-4-((9-ethyl-8-(2-methylpyrimidin-5-yl)-9H-purin-6-yl)oxy)pyrrolidin-1-yl)methanone] | >10
21 | CCC(=O)N1CC[C@H](Oc2ncnc3c2nc(-c2cnc(OC)c(C#N)c2)n3C)C1 [Compound 3-37, 2-methoxy-5-(9-methyl-6-{[(3S)-1-propanoylpyrrolidin-3-yl]oxy}-9H-purin-8-yl)pyridine-3-carbonitrile] | >10
22 | CCn1ncc(-c2nc3c(O[C@H]4CCN(C(=O)c5nc(C)oc5C)C4)ncnc3n2C)c1C [Compound 2-28, 6-({(3S)-1-[(2,5-dimethyl-1,3-oxazol-4-yl)carbonyl]pyrrolidin-3-yl}oxy)-8-(1-ethyl-5-methyl-1H-pyrazol-4-yl)-9-methyl-9H-purine] | >10
23 | CCn1ncc(-c2nc3c(O[C@H]4CCN(c5cc(C(F)(F)F)ccn5)C4)ncnc3n2C)c1C [Compound 7-5, 8-(1-ethyl-5-methyl-1H-pyrazol-4-yl)-9-methyl-6-({(3S)-1-[4-(trifluoromethyl)pyridin-2-yl]pyrrolidin-3-yl}oxy)-9H-purine] | >10
